# According to ChEMBL document CHEMBL1649369, “Novel 4-aryl-pyrido[1,2-c]pyrimidines with dual SSRI and 5-HT(1A) activity. part 3” (Eur J Med Chem, 2011):
# Activity calls are given as the source filed them. No cut-off for these calls is given here.
# Experiments:
# [1] = biological target: Sodium-dependent serotonin transporter (Rattus norvegicus, UniProt P31652); assay: Displacement of [3H]citalopram from SERT in rat cerebral cortex by liquid scintillation counting; format: tissue-based
# [2] = biological target: T1, 5-hydroxytryptamine receptor 1A (Rattus norvegicus, UniProt P19327); assay: Displacement of [3H]8-OH-DPAT from 5-HT1A receptor in rat hippocampus; format: tissue-based
# T1 sequence (P19327 whole entry): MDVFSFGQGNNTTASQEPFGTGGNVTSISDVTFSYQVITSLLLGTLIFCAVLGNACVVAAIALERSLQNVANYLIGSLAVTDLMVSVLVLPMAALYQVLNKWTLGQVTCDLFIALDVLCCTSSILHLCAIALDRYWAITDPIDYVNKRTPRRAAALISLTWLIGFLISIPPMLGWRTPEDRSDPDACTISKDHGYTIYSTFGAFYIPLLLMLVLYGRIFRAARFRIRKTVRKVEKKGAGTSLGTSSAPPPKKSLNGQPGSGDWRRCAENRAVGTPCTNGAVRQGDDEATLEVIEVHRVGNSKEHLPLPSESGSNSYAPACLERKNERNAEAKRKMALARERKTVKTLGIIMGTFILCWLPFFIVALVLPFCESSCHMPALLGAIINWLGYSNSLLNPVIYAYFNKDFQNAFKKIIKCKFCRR
# Mus musculus [3] = assay: Effect on hypothermia in Swiss albino mouse assessed as change in rectal body temperature at 10 mg/kg, ip after 120 mins by inducible hypothermia test; format: functional, organism-based; design: dose 10 mg/kg
# Mus musculus [4] = assay: Effect on hypothermia in Swiss albino mouse assessed as change in rectal body temperature at 20 mg/kg, ip after 90 mins by inducible hypothermia test; format: functional, organism-based; design: dose 20 mg/kg
# Mus musculus [5] = assay: Effect on hypothermia in Swiss albino mouse assessed as change in rectal body temperature at 10 mg/kg, ip after 90 mins by inducible hypothermia test; format: functional, organism-based; design: dose 10 mg/kg
# Mus musculus [6] = assay: Effect on hypothermia in Swiss albino mouse assessed as change in rectal body temperature at 10 mg/kg, ip after 30 mins by inducible hypothermia test; format: functional, organism-based; design: dose 10 mg/kg
# Mus musculus [7] = assay: Effect on hypothermia in Swiss albino mouse assessed as change in rectal body temperature at 5 mg/kg, ip after 90 mins by inducible hypothermia test; format: functional, organism-based; design: dose 5 mg/kg
# Mus musculus [8] = assay: Effect on hypothermia in Swiss albino mouse assessed as change in rectal body temperature at 20 mg/kg, ip after 120 mins by inducible hypothermia test; format: functional, organism-based; design: dose 20 mg/kg
# Mus musculus [9] = assay: Effect on hypothermia in Swiss albino mouse assessed as change in rectal body temperature at 20 mg/kg, ip after 30 mins by inducible hypothermia test; format: functional, organism-based; design: dose 20 mg/kg
# Mus musculus [10] = assay: Effect on hypothermia in Swiss albino mouse assessed as change in rectal body temperature at 10 mg/kg, ip after 60 mins by inducible hypothermia test; format: functional, organism-based; design: dose 10 mg/kg
# Mus musculus [11] = assay: Effect on hypothermia in Swiss albino mouse assessed as change in rectal body temperature at 5 mg/kg, ip after 30 mins by inducible hypothermia test; format: functional, organism-based; design: dose 5 mg/kg
# Mus musculus [12] = assay: Effect on hypothermia in Swiss albino mouse assessed as change in rectal body temperature at 5 mg/kg, ip after 120 mins by inducible hypothermia test; format: functional, organism-based; design: dose 5 mg/kg
# Mus musculus [13] = assay: Effect on hypothermia in Swiss albino mouse assessed as change in rectal body temperature at 20 mg/kg, ip after 60 mins by inducible hypothermia test; format: functional, organism-based; design: dose 20 mg/kg
# Mus musculus [14] = assay: Effect on hypothermia in Swiss albino mouse assessed as change in rectal body temperature at 5 mg/kg, ip after 60 mins by inducible hypothermia test; format: functional, organism-based; design: dose 5 mg/kg
# Mus musculus [15] = assay: Antidepressant activity in Swiss albino mouse assessed as total immobility time at 20 mg/kg, ip administered 30 mins before test measured 6 mins test session after 2 mins habituation period by forced swimming test; format: functional, organism-based; design: dose 20 mg/kg
# Mus musculus [16] = assay: Effect on hypothermia in Swiss albino mouse assessed as change in rectal body temperature at 20 mg/kg, ip dosed 15 mins after 0.1 mg/kg, sc WAY 100635 challenge measured after 60 mins by inducible hypothermia test; format: functional, organism-based
# Mus musculus [17] = assay: Effect on hypothermia in Swiss albino mouse assessed as change in rectal body temperature at 20 mg/kg, ip dosed 15 mins after 0.1 mg/kg, sc WAY 100635 challenge measured after 30 mins by inducible hypothermia test; format: functional, organism-based
# Mus musculus [18] = assay: Antidepressant activity in Swiss albino mouse assessed as total immobility time at 10 mg/kg, ip administered 30 mins before test measured 6 mins test session after 2 mins habituation period by forced swimming test; format: functional, organism-based; design: dose 10 mg/kg
# Mus musculus [19] = species on record: Mus musculus; settings: Swiss albino, 10 mg/kg
# Description: Effect on hypothermia in Swiss albino mouse assessed as change in rectal body temperature at 10 mg/kg, ip dosed 15 mins after 0.1 mg/kg, sc WAY 100635 challenge measured after 30 mins by inducible hypothermia test
# Mus musculus [20] = species on record: Mus musculus; settings: Swiss albino, 10 mg/kg; remark: listed apart in the source
# Description: Effect on hypothermia in Swiss albino mouse assessed as change in rectal body temperature at 10 mg/kg, ip dosed 15 mins after 0.1 mg/kg, sc WAY 100635 challenge measured after 60 mins by inducible hypothermia test
# Sodium-dependent serotonin transporter, sequence (P31652 whole entry): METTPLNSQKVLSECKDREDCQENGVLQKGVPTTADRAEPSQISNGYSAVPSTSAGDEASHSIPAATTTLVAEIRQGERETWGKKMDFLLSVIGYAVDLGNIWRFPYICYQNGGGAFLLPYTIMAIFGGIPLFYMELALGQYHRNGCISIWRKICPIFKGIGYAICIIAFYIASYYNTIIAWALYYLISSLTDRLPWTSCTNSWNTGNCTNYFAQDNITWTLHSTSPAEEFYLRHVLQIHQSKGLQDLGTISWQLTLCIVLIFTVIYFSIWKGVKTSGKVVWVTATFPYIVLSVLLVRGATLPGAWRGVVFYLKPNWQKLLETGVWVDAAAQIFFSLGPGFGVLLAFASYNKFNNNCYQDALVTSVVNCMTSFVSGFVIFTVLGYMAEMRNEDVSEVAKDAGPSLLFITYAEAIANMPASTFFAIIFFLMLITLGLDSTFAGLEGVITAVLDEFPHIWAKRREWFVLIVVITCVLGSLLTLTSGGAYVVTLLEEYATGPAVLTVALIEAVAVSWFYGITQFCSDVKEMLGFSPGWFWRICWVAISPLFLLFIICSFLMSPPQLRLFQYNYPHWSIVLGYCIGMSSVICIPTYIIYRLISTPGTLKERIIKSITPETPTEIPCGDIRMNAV
SMILES,Ki [1],Ki [2],deltaT (Mus musculus [3]),deltaT (Mus musculus [5]),deltaT (Mus musculus [6]),deltaT (Mus musculus [7]),deltaT (Mus musculus [10]),deltaT (Mus musculus [11]),deltaT (Mus musculus [12]),deltaT (Mus musculus [14]),further results
Cc1[nH]c2ccccc2c1C1CCN(CCCCn2c(=O)c(-c3ccccc3Cl)c3n(c2=O)CCCC3)CC1,1300 nM,393 nM,–,–,–,–,–,–,–,–,–
O=c1c(-c2ccccc2Cl)c2n(c(=O)n1CCCCN1CCC(c3c[nH]c4ccccc34)CC1)CCCC2,147 nM,62.3 nM,0 °C,-0.1 °C,-0.7 °C,-0.2 °C,-0.2 °C,-0.5 °C,-0.1 °C,-0.2 °C,deltaT (Mus musculus [4]): -0.2 °C; deltaT (Mus musculus [8]): -0.1 °C; deltaT (Mus musculus [9]): -1 °C; deltaT (Mus musculus [13]): -0.6 °C
Cc1ccccc1-c1c2n(c(=O)n(CCCCN3CCC(c4c[nH]c5ccccc45)CC3)c1=O)CCCC2,69.1 nM,112 nM,–,–,–,–,–,–,–,–,–
Cc1ccccc1-c1c2n(c(=O)n(CCCCN3CCC(c4c(C)[nH]c5ccccc45)CC3)c1=O)CCCC2,882 nM,642 nM,–,–,–,–,–,–,–,–,–
Cc1ccc(-c2c3n(c(=O)n(CCCCN4CCC(c5c[nH]c6ccccc56)CC4)c2=O)CCCC3)cc1,42.4 nM,46.2 nM,-0.1 °C,-0.2 °C,-0.6 °C,-0.3 °C,-0.3 °C,-0.5 °C,-0.2 °C,-0.4 °C,deltaT (Mus musculus [4]): -0.4 °C; deltaT (Mus musculus [8]): -0.3 °C; deltaT (Mus musculus [9]): -1.3 °C; deltaT (Mus musculus [13]): -0.9 °C; Activity (Mus musculus [15]): inactive; deltaT (Mus musculus [16]): -0.2 °C; deltaT (Mus musculus [17]): -0.4 °C; Activity (Mus musculus [18]): inactive
O=c1c(-c2ccccc2)c2n(c(=O)n1CCCCN1CCC(c3c[nH]c4ccccc34)CC1)CCCC2,81.7 nM,28.3 nM,-0.1 °C,-0.2 °C,-1.1 °C,-0.2 °C,-0.3 °C,-0.7 °C,-0.1 °C,-0.3 °C,deltaT (Mus musculus [19]): -0.5 °C; deltaT (Mus musculus [20]): -0.2 °C
COc1ccc(-c2c3n(c(=O)n(CCCCN4CCC(c5c(C)[nH]c6ccccc56)CC4)c2=O)CCCC3)cc1,184 nM,153 nM,–,–,–,–,–,–,–,–,–
Cc1[nH]c2ccccc2c1C1CCN(CCCCn2c(=O)c(-c3ccc(F)cc3)c3n(c2=O)CCCC3)CC1,147 nM,114 nM,–,–,–,–,–,–,–,–,–
COc1ccccc1-c1c2n(c(=O)n(CCCCN3CCC(c4c(C)[nH]c5ccccc45)CC3)c1=O)CCCC2,1300 nM,319 nM,–,–,–,–,–,–,–,–,–
